{"source": "patent US6589957B2", "about": "“Compounds and methods of use for treatment of neurogenic inflammation” (Harbor Branch Oceanographic Institution, Inc., priority 1998, dated 2003)", "system": "resiniferatoxin (RTX)-induced mouse ear edema", "assay": "Inhibition of resiniferatoxin-induced inflammation (edema) of the mouse ear", "assay_type": "in vivo", "details": "50 μg/ear topically in acetone together with RTX 0.1 μg/ear, 30-minute incubation, relative to control group edema", "experimental": "Inhibition of Resiniferatoxin-Induced Inflammation (Edema) of the Mouse Ear\nInduction of mouse ear edema can be conducted by known methods (Inoue, 1-f., N. Nagata, Y. Koshffiara [1993]). Compounds to be tested for anti-neurogenic inflammatory activity are topically applied in acetone to the ears of mice in a solution that includes the edema-causing irritant resiniferatoxin (RTX). RTX alone (0.1 μg/ear) or in combination with various dilutions of test compound are applied to both sides of the left ears (5 mice per treatment group) and acetone is applied to all right ears. After a 30-minute incubation, the mice are sacrificed, the ears removed, and bores taken and weighed. Edema is measured by subtracting the weight of the right ear (acetone control) from the weight of the left ear (treated). Results are recorded as % decrease (inhibition) or % increase (potentiation) in edema relative to the control group edema.\nBis-heterocycle compounds of the subject invention, e.g., the bis-indole compounds, show significant anti-inflammatory properties.", "data": [{"smiles": "CC1c2[nH]c(N)nc2C2(O)CC1c1c(-c3cnc(-c4c[nH]c5cc(Br)ccc45)c(=O)[nH]3)c[nH]c1C2=O", "note": "(stereo not drawn) [dragmacidin f]", "values": [{"measurement": "inhibition of RTX-induced edema", "value": "approximately 69.9%"}]}, {"smiles": "Nc1ncc(C(Cc2nc(C(=O)c3c[nH]c4cc(O)ccc34)[nH]c2-c2c[nH]c3cc(Br)ccc23)C(=O)O)[nH]1", "note": "(stereo not drawn) [topsentin d]", "values": [{"measurement": "inhibition of RTX-induced edema", "value": "approximately 96.9%"}]}, {"smiles": "CC(c1cnc(N)[nH]1)c1nc(C(=O)c2c[nH]c3cc(O)ccc23)[nH]c1-c1c[nH]c2cc(Br)ccc12", "note": "(stereo not drawn) [topsentin e]", "values": [{"measurement": "inhibition of RTX-induced edema", "value": "approximately 88.4%"}]}]}
